The assay has as its target T1, LTA4H (Homo sapiens, UniProt P09960).
T1 construct: made in house; host or cells: E. coli BL21 (DE3)
T1 sequence (P09960 1-611): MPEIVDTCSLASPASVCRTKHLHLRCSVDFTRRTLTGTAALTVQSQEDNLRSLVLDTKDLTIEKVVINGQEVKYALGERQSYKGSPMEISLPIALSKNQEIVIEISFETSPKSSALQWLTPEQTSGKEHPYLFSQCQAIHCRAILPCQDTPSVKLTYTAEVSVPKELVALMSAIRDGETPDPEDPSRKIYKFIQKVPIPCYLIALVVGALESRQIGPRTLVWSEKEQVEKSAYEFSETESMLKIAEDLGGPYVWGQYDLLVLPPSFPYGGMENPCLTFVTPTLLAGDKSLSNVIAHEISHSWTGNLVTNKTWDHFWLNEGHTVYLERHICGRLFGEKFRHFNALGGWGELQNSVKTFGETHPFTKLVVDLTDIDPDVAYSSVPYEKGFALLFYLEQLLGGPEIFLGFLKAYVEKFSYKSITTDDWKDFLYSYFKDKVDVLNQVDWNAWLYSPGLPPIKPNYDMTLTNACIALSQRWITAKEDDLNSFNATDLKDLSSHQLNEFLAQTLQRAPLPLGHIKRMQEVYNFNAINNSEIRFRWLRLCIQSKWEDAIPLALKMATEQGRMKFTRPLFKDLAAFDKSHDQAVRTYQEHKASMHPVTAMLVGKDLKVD
As to the kind of experiment: ITC measurement LTA4H. The note with it: 25 °C, read-out: LTA4H K d. The format is binding. (In general: In ITC the heat of successive injections is recorded.)

Data on two molecules can be found in publication PMC8049054, “Systematic Assessment of Fragment Identification for Multitarget Drug Design” (Chemmedchem, 2021).

Molecules are shown by their SMILES.

Turning to `Oc1ccc(-c2ccc(F)cc2F)cc1` [Compound 9], the Kd turned out to be 5.3 µM.

As for `Fc1ccc(-c2c[nH]c3ccccc23)cc1` [Compound 10], the Kd turned out to be 1.7 µM.
